Type in all cases: biochemical
Test [1] has as its target CDK1/Cyclin B1 (Homo sapiens, UniProt P06493). Nature of the test: CDK1/Cyclin B1 kinase assay (Nanosyn, Caliper microfluidic). The settings on record: 12-point dose-response, ATP at Km (40 μM), 3 hr. In outline:
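Mobility-shift microfluidic kinase assay, 12-point dose-response in singlicate. Conditions: 0.08 nM enzyme, 40 μM ATP (Km), 1 μM peptide substrate, 3 hr incubation; staurosporine as reference.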

Test [2] deals with CDK2/Cyclin A (Homo sapiens, UniProt P24941). In words: CDK2/Cyclin A kinase assay (Nanosyn, Caliper microfluidic). The settings on record: 12-point dose-response, ATP at Km (50 μM), 3 hr. In outline:
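Caliper microfluidic mobility-shift read-out; 0.1 nM enzyme, 50 μM ATP (Km), 1 μM peptide substrate, 3 hr incubation. 12-point dose-response in singlicate; staurosporine as reference.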

Test [3] deals with CDK2/Cyclin E (Homo sapiens, UniProt P24941). Nature of the test: CDK2/Cyclin E kinase assay (Nanosyn, Caliper microfluidic). Particulars: 12-point dose-response, ATP at Km (100 μM), 3 hr. In outline: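 Caliper microfluidic mobility-shift readout of phosphorylation of 1 μM substrate peptide by 0.15 nM enzyme at 100 μM ATP (stated as Km), 3 hr incubation. 12-point dose-response in singlicate, staurosporine as reference.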

The target in test [4] is CDK3/Cyclin E (Homo sapiens, UniProt Q00526). Nature of the test: CDK3/Cyclin E kinase assay (Nanosyn, Caliper microfluidic). The settings on record: 12-point dose-response, ATP at Km (400 μM), 3 hr. In outline:
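Caliper microfluidic mobility-shift read-out with 1 nM enzyme, 400 μM ATP (stated as Km) and 1 μM peptide substrate, 3 hr incubation. Compounds run as 12-point dose-response in singlicate.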

For test [5], the target named is CDK4/Cyclin D1 (Homo sapiens, UniProt P11802). In words: CDK4/Cyclin D1 kinase assay (Nanosyn, Caliper microfluidic). Particulars: 12-point dose-response, ATP at Km (200 μM), 3 hr; Table 4. In outline:
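Caliper microfluidic mobility-shift read-out, 12-point dose-response in singlicate. 1 nM enzyme, 200 μM ATP (Km), 1 μM peptide substrate, 3 hr incubation; staurosporine as reference.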

The target of test [6] is CDK5/p35 (Homo sapiens, UniProt Q00535). In words: CDK5/p35 kinase assay (Nanosyn, Caliper microfluidic). The settings on record: 12-point dose-response, ATP at Km (20 μM), 3 hr. In outline:
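Microfluidic mobility-shift kinase assay with 0.05 nM CDK5/p35, 20 μM ATP (Km) and 1 μM peptide substrate, 3 hr incubation. Compounds tested as 12-point dose–response in singlicate; staurosporine as reference.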

The target of test [7] is CDK5/p25 (Homo sapiens, UniProt Q00535). Nature of the test: CDK5/p25 kinase assay (Nanosyn, Caliper microfluidic). Particulars: 12-point dose-response, ATP at Km (20 μM), 3 hr. In outline:
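Caliper microfluidic mobility-shift assay, 12-point dose-response in singlicate. CDK5/p25 at 0.1 nM with 20 μM ATP (Km) and 1 μM peptide substrate. Incubation 3 hr.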

In test [8] the target is CDK6/Cyclin D3 (Homo sapiens, UniProt Q00534). In words: CDK6/Cyclin D3 kinase assay (Nanosyn, Caliper microfluidic). Particulars: 12-point dose-response, ATP at Km (300 μM), 3 hr. In outline: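 Caliper microfluidic assay with 2 nM enzyme, 300 μM ATP and 1 μM phosphoacceptor peptide, incubated for 3 hr. Compounds were run as 12-point dose-response curves in singlicate.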

In test [9] the target is CDK7/Cyclin H (Homo sapiens, UniProt P50613). Nature of the test: CDK7/Cyclin H kinase assay (Nanosyn, Caliper microfluidic). Particulars: 12-point dose-response, ATP at Km (50 μM), 17 hr. In outline:
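Caliper microfluidic mobility-shift assay with 10 nM CDK7/Cyclin H, 50 μM ATP (Km) and 1 μM peptide substrate, incubated 17 hr. Compounds run in 12-point dose-response, singlicate.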

The target in test [10] is CDK9/Cyclin T (Homo sapiens, UniProt P50750). In words: CDK9/Cyclin T kinase assay (Nanosyn, Caliper microfluidic). The settings on record: 12-point dose-response, ATP at Km (10 μM), 17 hr; Table 5. In outline:
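Caliper microfluidic mobility-shift read-out, 12-point dose-response in singlicate at ATP Km with 1 μM peptide substrate; staurosporine reference.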

Our source for the IC50 values is patent US20200331925A1, “HETEROCYCLIC COMPOUNDS FOR THE TREATMENT OF ABNORMAL CELLULAR PROLIFERATION” (G1 Therapeutics, Inc., priority 2018, published 2020).

CDK1/Cyclin B1, sequence (P06493 whole entry): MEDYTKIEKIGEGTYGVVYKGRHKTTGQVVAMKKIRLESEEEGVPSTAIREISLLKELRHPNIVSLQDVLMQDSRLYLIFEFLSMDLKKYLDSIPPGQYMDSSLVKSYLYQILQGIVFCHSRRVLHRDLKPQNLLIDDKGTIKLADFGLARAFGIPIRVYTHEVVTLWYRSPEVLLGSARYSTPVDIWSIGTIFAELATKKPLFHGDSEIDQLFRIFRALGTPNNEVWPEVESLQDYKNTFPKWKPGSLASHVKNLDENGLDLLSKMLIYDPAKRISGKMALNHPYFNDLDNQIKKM
CDK1/Cyclin B1, sequence (P14635 whole entry partner): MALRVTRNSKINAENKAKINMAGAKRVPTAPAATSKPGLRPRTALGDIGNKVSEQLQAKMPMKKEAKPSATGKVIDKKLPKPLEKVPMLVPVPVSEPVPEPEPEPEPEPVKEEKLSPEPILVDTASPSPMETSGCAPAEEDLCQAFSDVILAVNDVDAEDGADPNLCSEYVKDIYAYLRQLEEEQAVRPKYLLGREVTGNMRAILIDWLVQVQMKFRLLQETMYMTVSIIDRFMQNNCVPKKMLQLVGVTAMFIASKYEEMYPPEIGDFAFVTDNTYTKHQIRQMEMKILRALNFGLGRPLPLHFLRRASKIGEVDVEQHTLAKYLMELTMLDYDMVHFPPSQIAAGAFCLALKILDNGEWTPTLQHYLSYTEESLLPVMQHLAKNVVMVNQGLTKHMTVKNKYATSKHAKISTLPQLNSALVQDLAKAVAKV
CDK5/p35, sequence (Q00535 whole entry): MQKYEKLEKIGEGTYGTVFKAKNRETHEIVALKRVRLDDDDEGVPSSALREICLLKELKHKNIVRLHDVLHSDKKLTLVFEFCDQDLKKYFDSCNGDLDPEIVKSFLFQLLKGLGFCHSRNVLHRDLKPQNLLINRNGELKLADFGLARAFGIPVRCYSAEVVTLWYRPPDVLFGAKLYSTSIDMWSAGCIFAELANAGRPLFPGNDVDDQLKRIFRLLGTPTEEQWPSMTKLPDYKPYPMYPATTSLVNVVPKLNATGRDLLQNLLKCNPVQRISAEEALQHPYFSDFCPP
CDK5/p35, sequence (Q15078 whole entry partner): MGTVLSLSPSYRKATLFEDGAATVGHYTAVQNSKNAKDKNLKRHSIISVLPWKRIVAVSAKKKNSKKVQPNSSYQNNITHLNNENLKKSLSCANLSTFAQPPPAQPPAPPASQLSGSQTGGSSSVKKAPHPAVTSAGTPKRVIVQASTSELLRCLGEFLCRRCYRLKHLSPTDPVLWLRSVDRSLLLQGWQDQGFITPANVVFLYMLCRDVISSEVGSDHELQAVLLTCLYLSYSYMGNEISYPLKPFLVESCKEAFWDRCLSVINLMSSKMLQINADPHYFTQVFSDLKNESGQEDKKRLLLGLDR
CDK5/p25, sequence (Q00535 whole entry): as the sequence (Q00535 whole entry) above
CDK5/p25, sequence (Q15078 99-307 partner limits assumed): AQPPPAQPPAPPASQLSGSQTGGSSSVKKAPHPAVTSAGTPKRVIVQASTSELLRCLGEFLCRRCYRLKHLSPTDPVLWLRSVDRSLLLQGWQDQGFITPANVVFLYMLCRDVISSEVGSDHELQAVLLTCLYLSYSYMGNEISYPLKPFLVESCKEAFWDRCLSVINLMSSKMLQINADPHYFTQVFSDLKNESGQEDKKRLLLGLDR
CDK6/Cyclin D3, sequence (Q00534 whole entry): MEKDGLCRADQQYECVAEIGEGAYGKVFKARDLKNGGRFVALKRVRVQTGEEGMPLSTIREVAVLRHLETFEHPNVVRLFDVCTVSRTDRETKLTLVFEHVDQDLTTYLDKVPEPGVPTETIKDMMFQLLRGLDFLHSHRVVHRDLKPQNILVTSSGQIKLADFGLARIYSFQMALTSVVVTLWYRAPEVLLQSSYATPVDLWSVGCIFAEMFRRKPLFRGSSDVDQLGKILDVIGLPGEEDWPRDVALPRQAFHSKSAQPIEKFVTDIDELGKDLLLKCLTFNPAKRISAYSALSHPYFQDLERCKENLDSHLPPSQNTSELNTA
CDK6/Cyclin D3, sequence (P30281 whole entry partner): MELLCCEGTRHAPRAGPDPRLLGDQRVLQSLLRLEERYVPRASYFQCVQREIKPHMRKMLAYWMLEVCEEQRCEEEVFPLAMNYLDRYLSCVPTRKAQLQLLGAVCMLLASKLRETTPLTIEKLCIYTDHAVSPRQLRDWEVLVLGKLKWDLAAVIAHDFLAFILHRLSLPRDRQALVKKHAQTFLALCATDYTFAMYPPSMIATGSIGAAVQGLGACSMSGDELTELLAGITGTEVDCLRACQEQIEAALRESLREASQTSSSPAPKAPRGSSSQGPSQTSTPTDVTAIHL
CDK4/Cyclin D1, sequence (P11802 whole entry): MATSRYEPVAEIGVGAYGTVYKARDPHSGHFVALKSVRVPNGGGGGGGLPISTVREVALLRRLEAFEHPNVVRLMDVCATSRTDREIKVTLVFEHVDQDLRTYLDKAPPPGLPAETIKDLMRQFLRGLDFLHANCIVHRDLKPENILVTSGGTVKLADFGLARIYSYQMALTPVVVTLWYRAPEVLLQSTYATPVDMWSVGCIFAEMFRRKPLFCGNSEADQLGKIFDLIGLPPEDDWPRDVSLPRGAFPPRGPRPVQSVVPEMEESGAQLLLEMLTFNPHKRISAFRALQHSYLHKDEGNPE
CDK4/Cyclin D1, sequence (P24385 whole entry partner): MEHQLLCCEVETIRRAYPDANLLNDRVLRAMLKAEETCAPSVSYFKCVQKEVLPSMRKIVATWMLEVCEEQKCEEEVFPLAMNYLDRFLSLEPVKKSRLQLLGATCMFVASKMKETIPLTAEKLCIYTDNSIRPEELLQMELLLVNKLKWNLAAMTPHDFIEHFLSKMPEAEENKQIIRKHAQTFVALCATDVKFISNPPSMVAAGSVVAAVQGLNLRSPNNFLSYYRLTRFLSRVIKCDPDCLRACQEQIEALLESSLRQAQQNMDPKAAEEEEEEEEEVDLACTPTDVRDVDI
CDK7/Cyclin H, sequence (P50613 whole entry): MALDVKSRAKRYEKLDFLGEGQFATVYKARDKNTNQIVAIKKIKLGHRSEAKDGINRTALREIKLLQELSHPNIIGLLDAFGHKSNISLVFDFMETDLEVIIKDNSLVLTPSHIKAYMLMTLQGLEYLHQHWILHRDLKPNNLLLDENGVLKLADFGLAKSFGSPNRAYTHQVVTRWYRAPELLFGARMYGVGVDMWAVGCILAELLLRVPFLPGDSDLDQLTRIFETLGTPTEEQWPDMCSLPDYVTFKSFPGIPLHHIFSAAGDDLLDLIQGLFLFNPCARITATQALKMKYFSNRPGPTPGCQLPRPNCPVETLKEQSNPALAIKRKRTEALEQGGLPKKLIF
CDK7/Cyclin H, sequence (P51946 whole entry partner): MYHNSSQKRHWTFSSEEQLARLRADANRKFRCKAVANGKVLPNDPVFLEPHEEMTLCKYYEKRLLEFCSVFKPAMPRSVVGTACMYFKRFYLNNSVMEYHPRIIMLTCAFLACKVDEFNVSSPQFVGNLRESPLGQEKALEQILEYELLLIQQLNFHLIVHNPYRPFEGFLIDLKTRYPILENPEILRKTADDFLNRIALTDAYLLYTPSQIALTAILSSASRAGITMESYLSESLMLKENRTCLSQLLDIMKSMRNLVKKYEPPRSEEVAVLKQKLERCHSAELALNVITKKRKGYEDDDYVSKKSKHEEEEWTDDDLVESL
CDK7/Cyclin H, sequence (P51948 whole entry partner): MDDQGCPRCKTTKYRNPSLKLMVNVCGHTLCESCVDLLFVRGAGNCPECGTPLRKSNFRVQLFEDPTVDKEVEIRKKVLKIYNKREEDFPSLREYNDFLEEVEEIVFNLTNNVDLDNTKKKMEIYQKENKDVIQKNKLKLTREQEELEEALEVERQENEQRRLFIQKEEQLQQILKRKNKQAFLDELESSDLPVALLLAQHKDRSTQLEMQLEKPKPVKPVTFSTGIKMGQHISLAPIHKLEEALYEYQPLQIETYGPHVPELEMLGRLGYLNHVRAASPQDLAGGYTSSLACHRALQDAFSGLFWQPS

As usually defined, the IC50 is the midpoint of a concentration-inhibition curve. A high value points to lower potency. On to `S=C1NCC2(CCCCC2)n2c1cc1cnc(N[C@H]3CCCNC3)nc12` [Compound 40, (S)-2′-(piperidin-3-ylamino)-7′,8′-dihydro-6′H-spiro[cyclohexane-1,9′-pyrazino[1′,2′:1,5]pyrrolo[2,3-d]pyrimidine]-6′-thione], for which the IC50 worked out at 61 nM in [1]; 100 nM in test [2]; 110 nM in [3]; 17 nM in [4]; 23 nM in test [5]; 51 nM in test [6]. Moreover, the IC50 in [7] was determined as 40 nM; in test [8], 79 nM; in [9], 10 nM; in [10], 3.4 nM.
Take `S=C1NCC2(CCCCC2)n2c1cc1cnc(N[C@@H]3CCCNC3)nc12` [Compound 41, (R)-2′-(piperidin-3-ylamino)-7′,8′-dihydro-6′H-spiro[cyclohexane-1,9′-pyrazino[1′,2′:1,5]pyrrolo[2,3-d]pyrimidine]-6′-thione]: the IC50 turned out to be 330 nM in [1]; 150 nM in test [2]; 310 nM in [3]; 210 nM in test [4]; 6.7 nM in test [5]; 1100 nM in [6]. Besides, the half-maximal inhibitory concentration (IC50) in [7] is 970 nM; in [8] it was 23 nM; in test [9], 85 nM; in test [10] it was 4.3 nM.
As to `NS(=O)(=O)c1cccc(Nc2ncc3cc4n(c3n2)C2(CCCCC2)CNC4=O)c1` [Compound 42, 3-((6′-oxo-7′,8′-dihydro-6′H-spiro[cyclohexane-1,9′-pyrazino[1′,2′:1,5]pyrrolo[2,3-d]pyrimidin]-2′-yl)amino)benzenesulfonamide], the 50% inhibitory concentration (IC50) in test [1] amounted to 8.8 nM; in test [2] it was 4.3 nM; in test [3] it was 7.8 nM; in test [4], 12 nM; in test [5] it was 8.9 nM; in [6], 7.5 nM. The IC50 in test [7] worked out at 5.5 nM; in [8] it was 22 nM; in test [9], 240 nM; in [10], 1.2 nM.
`NS(=O)(=O)Cc1cccc(Nc2ncc3cc4n(c3n2)C2(CCCCC2)CNC4=O)c1` [Compound 43, (3-((6′-oxo-7′,8′-dihydro-6′H-spiro[cyclohexane-1,9′-pyrazino[1′,2′:1,5]pyrrolo[2,3-d]pyrimidin]-2′-yl)amino)phenyl)methanesulfonamide]: the IC50 in test [1] is greater than 100000 nM; in [2], 99000 nM; in test [3], greater than 100000 nM; in [4] it was greater than 100000 nM; in test [5], 47000 nM; in [6], 94000 nM. Besides, the IC50 in test [7] is 99000 nM; in test [8], greater than 100000 nM; in test [9], greater than 100000 nM; in [10] it was 10000 nM.
In the case of `O=C1NCC2(CCCCC2)n2c1cc1cnc(N[C@H]3CC[C@H](N4CCOCC4)CC3)nc12` [Compound 44, 2′-(((1,4-trans)-4-morpholinocyclohexyl)amino)-7′,8′-dihydro-6′H-spiro[cyclohexane-1,9′-pyrazino[1′,2′:1,5]pyrrolo[2,3-d]pyrimidin]-6′-one], the IC50 in test [1] stood at 490 nM; in test [2], 170 nM; in test [3] it was 290 nM; in test [4], 470 nM; in [5], 24 nM; in test [6], 320 nM. The IC50 in [7] amounted to 270 nM; in test [8], 100 nM; in test [9] it was 270 nM; in [10], 6.2 nM.
Turning to `CN(C)[C@H]1CC[C@H](Nc2ncc3cc4n(c3n2)C2(CCCCC2)CNC4=O)CC1` [Compound 45, 2′-(((1,4-trans)-4-(dimethylamino)cyclohexyl)amino)-7′,8′-dihydro-6′H-spiro[cyclohexane-1,9′-pyrazino[1′,2′:1,5]pyrrolo[2,3-d]pyrimidin]-6′-one], the IC50 was 270 nM in test [1]; 140 nM in test [2]; 260 nM in test [3]; 240 nM in [4]; 11 nM in test [5]; 310 nM in [6]. For the same molecule, the IC50 in test [7] was 360 nM; in test [8] it was 47 nM; in [9], 86 nM; in [10] it was 3.3 nM.
Regarding `O=C1NCC2(CCCCC2)n2c1cc1cnc(N[C@H]3CC[C@H](N4CCCCC4)CC3)nc12` [Compound 46, 2′-(((1,4-trans)-4-(piperidin-1-yl)cyclohexyl)amino)-7′,8′-dihydro-6′H-spiro[cyclohexane-1,9′-pyrazino[1′,2′:1,5]pyrrolo[2,3-d]pyrimidin]-6′-one], the IC50 in test [1] was found to be 510 nM; in test [2], 250 nM; in [3] it was 470 nM; in [4], 520 nM; in test [5] it was 21 nM; in test [6], 710 nM. Further, the IC50 in [7] was 760 nM; in test [8], 78 nM; in test [9], 280 nM; in test [10] it was 6.4 nM.
For `O=C1NCC2(CCCCC2)n2c1cc1cnc(N[C@H]3CCCNC3)nc12` [Compound 47, (S)-2′-(piperidin-3-ylamino)-7′,8′-dihydro-6′H-spiro[cyclohexane-1,9′-pyrazino[1′,2′:1,5]pyrrolo[2,3-d]pyrimidin]-6′-one], the IC50 in test [1] is 170 nM; in test [2] it was 350 nM; in test [3], 550 nM; in test [4] it was 110 nM; in test [5], 130 nM; in test [6] it was 250 nM. The IC50 in [7] came out at 230 nM; in test [8], 370 nM; in [9], 27 nM; in test [10], 2.6 nM.
On to `O=C1NCC2(CCCCC2)n2c1cc1cnc(N[C@@H]3CCCNC3)nc12` [Compound 48, (R)-2′-(piperidin-3-ylamino)-7′,8′-dihydro-6′H-spiro[cyclohexane-1,9′-pyrazino[1′,2′:1,5]pyrrolo[2,3-d]pyrimidin]-6′-one], for which the IC50 in [1] was 510 nM; in test [2], 390 nM; in test [3] it was 1100 nM; in test [4], 1000 nM; in [5] it was 51 nM; in [6], 1300 nM. Moreover, the IC50 in test [7] came out at 1200 nM; in test [8] it was 230 nM; in [9], 330 nM; in test [10], 9 nM.
For `N[C@H]1CC[C@H](Nc2ncc3cc4n(c3n2)C2(CCCCC2)CNC4=O)CC1` [Compound 49, 2′-(((1r,4r)-4-aminocyclohexyl)amino)-7′,8′-dihydro-6′H-spiro[cyclohexane-1,9′-pyrazino[1′,2′:1,5]pyrrolo[2,3-d]pyrimidin]-6′-one], the IC50 in test [1] amounted to 140 nM; in test [2], 33 nM; in test [3] it was 72 nM; in test [4], 110 nM; in test [5], 6.8 nM; in test [6], 160 nM. The IC50 turned out to be 140 nM in [7], 40 nM in [8], 100 nM in test [9] and 2.2 nM in [10].
In the case of `C1=NCC2(CCCCC2)n2c1cc1cnc(N[C@H]3CCCNC3)nc12` [Compound 50, (S)-N-(piperidin-3-yl)-8′H-spiro[cyclohexane-1,9′-pyrazino[1′,2′:1,5]pyrrolo[2,3-d]pyrimidin]-2′-amine], the IC50 in test [1] turned out to be 280 nM; in test [2] it was 280 nM; in [3] it was 190 nM; in test [4], 64 nM; in test [5] it was 310 nM; in test [6] it was 180 nM. The IC50 worked out at 190 nM in [7], 1100 nM in test [8], 42 nM in [9] and 23 nM in test [10].
